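Cultured in 96-well plates, cells were exposed to test compound for 48 hours across five concentrations. Abbreviation: GI50, concentration required for 50% inhibition of growth.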 Activity calls are given as the source filed them. Rule as the data show it: active = GI50 up to about 1.1 µM and inactive = higher.
Columns and labels:
Experiment in all cases: DTP human tumour cell line panel, 48 h
[1] = tested on: ACHN
[2] = tested on: K562
[3] = tested on: BT-549
[4] = tested on: A498
[5] = tested on: SF-295
[6] = tested on: MDA-MB-231
[7] = tested on: Malme-3M
[8] = tested on: MCF7
[9] = tested on: OVCAR-5
[10] = tested on: Hs-578T
[11] = tested on: OVCAR-4
[12] = tested on: SN12C
[13] = tested on: 786-0
[14] = tested on: HOP-92
[15] = tested on: SK-MEL-28
[16] = tested on: PC-3
[17] = tested on: SNB-19
[18] = tested on: T47D
[19] = tested on: CCRF-CEM
[20] = tested on: HCC 2998

Measured: GI50

NC(C(=O)O)C(N)C(=O)O (configuration not stated)
inactive: [1] > 100 µM | [2] > 100 µM | [3] > 100 µM | [4] > 100 µM | [5] > 100 µM | [6] > 100 µM | [7] > 100 µM | [8] > 100 µM | [9] > 100 µM | [10] > 100 µM | [11] > 100 µM | [12] > 100 µM | [13] > 100 µM | [14] > 100 µM | [15] > 100 µM | [16] > 100 µM | [17] > 100 µM | [18] > 100 µM

CCOC(=O)C1(C(=O)OCC)Nc2cccnc2N(C)N1
inactive: [2] 22.8 µM | [3] 67.3 µM | [4] 17.5 µM | [5] > 100 µM | [6] 20.2 µM | [7] 48.1 µM | [8] 16.3 µM | [10] > 100 µM | [11] 17.7 µM | [19] 18.5 µM | [12] 19.1 µM | [13] 17.9 µM | [14] 14.7 µM | [15] 21.9 µM | [16] 22.8 µM | [17] > 100 µM | [18] 20.1 µM

COc1nc(SC)nc2c1C(O)n1c(nc3ccccc31)S2 (configuration not stated)
inactive: [1] 18.4 µM | [2] 13.7 µM | [3] 28.1 µM | [4] 16.3 µM | [5] 20.7 µM | [6] 14.4 µM | [7] 40 µM | [8] 1.84 µM | [20] 6.79 µM | [9] 82 µM | [10] 16 µM | [11] 17.4 µM | [19] 2.32 µM | [12] 24.3 µM | [13] 6.65 µM | [14] 23.3 µM | [15] 9.16 µM | [16] 19.3 µM | [17] 25.2 µM

Nc1ncnc2c1ncn2[C@@H]1C[C@@H]1CO
inactive: [1] > 100 µM | [2] > 100 µM | [3] > 100 µM | [4] > 100 µM | [5] > 100 µM | [6] > 100 µM | [7] > 100 µM | [8] > 100 µM | [20] > 100 µM | [9] > 100 µM | [10] > 100 µM | [19] > 100 µM | [12] > 100 µM | [13] > 100 µM | [16] > 100 µM | [17] > 100 µM | [18] > 100 µM

CCOC(=O)c1nnsc1NC(=O)Nc1ccc(Cc2ccc(NC(=O)Nc3snnc3C(=O)OCC)cc2)cc1
inactive: [1] > 100 µM | [2] > 100 µM | [3] > 100 µM | [5] 70 µM | [6] 28.2 µM | [7] 37.2 µM | [8] 71.8 µM | [20] > 100 µM | [9] > 100 µM | [10] 69.5 µM | [11] 35.6 µM | [19] > 100 µM | [12] 28.3 µM | [13] 18.2 µM | [15] > 100 µM | [16] 66.4 µM | [17] 39.1 µM | [18] 45.8 µM

N=C(N)Nc1nc2cc([N+](=O)[O-])ccc2[nH]1
inactive: [1] > 100 µM | [2] 93.5 µM | [3] 48.1 µM | [4] 27 µM | [5] 66.2 µM | [6] > 100 µM | [7] > 100 µM | [8] 48.5 µM | [9] > 100 µM | [10] > 100 µM | [11] > 100 µM | [19] > 100 µM | [12] 86.1 µM | [13] > 100 µM | [14] > 100 µM | [15] > 100 µM | [16] 81.1 µM | [17] > 100 µM | [18] 69.2 µM

CC(C)(C)c1ccc(-c2nc3ccccc3c(=O)o2)cc1
inactive: [1] 33.7 µM | [2] 35.6 µM | [3] 24.2 µM | [4] 71.6 µM | [5] 23.8 µM | [7] 35.8 µM | [8] 27.7 µM | [20] 54.8 µM | [9] 44.2 µM | [10] 68.7 µM | [11] 35.7 µM | [19] 19.3 µM | [12] 34.3 µM | [13] 74.6 µM | [14] 28 µM | [15] 42.5 µM | [16] 38.4 µM | [17] 43.1 µM | [18] 39.8 µM

— ChEMBL document CHEMBL1201862, “PubChem BioAssay data set” (2004)
